“Also recorded” adds a separate entry of the source.
What was measured:
DHR38 = settings: cultured larval organs; cited from earlier work
[1] = solvent or supplied form; cited from earlier work
C. elegans nhr-8 mutant = settings: mutation in the nuclear receptor nhr-8 gene; cited from earlier work
[2] = tested on: wild type (Canton S) and DHR96 mutant adult flies; assay: Toxicity assay: adult flies exposed to DDT in 5% sucrose on filter paper, survival scored; format: in vivo, Drosophila melanogaster
Experimental: A time course is shown. 20 wild type or DHR96^E25 mutant flies were treated with a high concentration of DDT (100 ng/μl) and assayed for survival every hour up to 10 hours. Each assay (A+B) was done in triplicate to determine the standard deviation as shown by the error bars.
(§1) A dose response curve is shown. Twenty wild type or DHR96^E25 mutant flies were exposed to eight DDT concentrations, from 0.78 to 100 ng/μl, and then scored for survival 10 hours later. A similar test was conducted for sensitivity to tebufenizide (FIG. 11C) using larvae raised on food supplemented with the drug.
Adult flies were raised on standard cornmeal/agar food and starved overnight under humid conditions at 25 0 C before treatment with DDT. A DDT stock solution was prepared by dissolving crystalline DDT (Sigma) in 100% ethanol. Appropriate DDT dilutions were made by diluting the DDT stock with 5% sucrose and pipetting 275 μl of the solution onto a strip of Whatman filter paper inside a small glass scintillation vial. Twenty adult flies were placed in each vial which was plugged with cotton. Mortality was scored 10 hours later at room temperature. For each DDT concentration, three replicates, each of twenty adult flies, were used. For the time course assay, 100 ng/μl of DDT was used and mortality scored every hour for 10 hours.
As a test of DHR96 acting in a xenobiotic pathway, DHR96 mutants were tested for sensitivity to the pesticide DDT. Adult wild type flies (Canton S) and DHR96^16A were exposed or DHR96^E25 flies to varying concentrations of DDT and recorded survival rates after a fixed time.
(§2) The adult Canton S flies and the DHR96E25 outcrossed lines were exposed to varying concentrations of drug and recorded effects after a fixed time (FIG. 11). DDT was assayed by starving young healthy adult flies overnight and then transferring them to vials, in three groups of 20 flies each, with filter paper soaked with 5% sucrose alone or 5% sucrose and DDT at different concentrations. The number of living flies was scored after 23 hours. […] Tebufenozide was administered to larvae in the food, and the number of surviving adult flies was scored.

Cyp6g1 = Cyp6g1 induction by DDT in Canton S flies; format: in vivo, Drosophila melanogaster; settings: one experiment
From the text: Validation can be conducted on selected genes, covering the different classes of detoxification pathways as well as new players that identified. Similar microarray studies using at least two other compounds, depending on which compounds show an effect in the viability and behavioral assays. It will be confirmed that wild type Canton S flies show a response to DDT using Cyp12d1 and other P450 genes as probes for northern blot hybridization. […] Other pesticides can also be surveyed for effects on a select group of Cyp gene targets to identify other compounds for use in comparative microarray profiling. […] Determining the transcriptional response to more than one xenobiotic compound can provide an initial impression of how insects respond to different toxins in their environment. […] Alternatively, the genetic response may be fine-tuned to combat specific xenobiotic compounds.

[3] = tested on: Cyp6a2 and Cyp6a8 transcription; assay: Northern blot hybridization of Cyp transcription in adult flies treated with phenobarbital; settings: adult flies treated with 0.3%, 1%, and 3% phenobarbital
Experimental: Each treatment is done in triplicate. RNA is extracted from each set of animals, purified by TRIzol extraction (Gibco BRL) followed by RNeasy column chromatography (Qiagen), and ethanol precipitation. The RNA is then labeled and hybridized to Affymetrix GeneChip® Drosophila Genome 2.0 arrays designed to detect 18,500 Drosophila transcripts. Data is then analyzed using DChip 1.3 (http://biosun1.harvard.edu/complab/dchip/) and Significance Analysis of Microarrays (SAM).

[4] = tested on: Canton S and outcrossed DHR96E25 mutant larvae; assay: Tebufenozide administered to larvae in the food, surviving adult flies scored; format: in vivo, Drosophila melanogaster; settings: larvae raised on food supplemented with the drug
Experimental: as §1, §2
The above assays are for testing the effect of xenobiotics on adult flies. Compounds can also be tested for their larvicidal effects by administering them in the food to staged populations of larvae (Grant et al. Bull. Envir. Contam. Tox. 69:35-40, 2002). DHR96 and Canton S control flies are maintained on normal cornmeal/molasses agar supplemented with yeast. Egg lays are collected overnight from these stocks and used to innoculate fresh vials of food supplemented with a specific concentration of the drug to be tested. […]

[5] = molecular target: T1, GAL4-DHR96 fusion protein (Drosophila melanogaster, UniProt Q24143); assay: GAL4-LBD activation assay in cultured third instar larval organs (UAS-lacZ, Xgal staining); format: cell-based; settings: organs of heat-induced hs-GAL4-DHR96; UAS-lacZ third instar larvae cultured with 1×10^−5 M tebufenozide
T1 construct: expressed in transfected cells; host or cells: transgenic Drosophila third instar larvae (hs-GAL4-DHR96; UAS-lacZ), dissected organs in culture
From the text: A gene fusion of the GAL4 DNA binding domain (DBD) and DHR96 ligand binding domain (LBD) is expressed upon heat-induction of the hsp70 promoter. The resultant fusion protein can bind to GAL4 response elements (UAS) on a seperate transgenic construct, but will only activate lacZ transcription in the presence of an appropriate ligand and/or co-factors (a ligand is shown). β-galactosidase expression is detected as the substrate from an Xgal staining reaction.
Third instar larvae were heat-treated to induce GAL4-DHR96 expression, dissected, and organs were cultured in the presence of 1×10^−5 M tebufenozide. UAS-lacZ reporter gene expression was detected by Xgal staining. […]
DHR96 activation can be assayed for by using a method established to follow the activation status of a nuclear receptor ligand binding domain (LBD) in a developing animal. […] Expression of β-galactosidase can be detected by histochemical staining using X-gal as a substrate, generating a blue dye (FIGS. 13, 14). […]
An advantage of the GAL4-LBD system is that it can be used in tissues dissected from transgenic larvae to test specific compounds for their ability to activate the fusion protein. […] A similar assay can be used to test the ability of xenobiotic compounds to activate the GAL4-DHR96 fusion protein in cultured larval organs, using either UAS-lacZ or UAS-GFP as a readout. […]

[6] = living flies scored after 23 hours

T1 sequence (Q24143 99-723): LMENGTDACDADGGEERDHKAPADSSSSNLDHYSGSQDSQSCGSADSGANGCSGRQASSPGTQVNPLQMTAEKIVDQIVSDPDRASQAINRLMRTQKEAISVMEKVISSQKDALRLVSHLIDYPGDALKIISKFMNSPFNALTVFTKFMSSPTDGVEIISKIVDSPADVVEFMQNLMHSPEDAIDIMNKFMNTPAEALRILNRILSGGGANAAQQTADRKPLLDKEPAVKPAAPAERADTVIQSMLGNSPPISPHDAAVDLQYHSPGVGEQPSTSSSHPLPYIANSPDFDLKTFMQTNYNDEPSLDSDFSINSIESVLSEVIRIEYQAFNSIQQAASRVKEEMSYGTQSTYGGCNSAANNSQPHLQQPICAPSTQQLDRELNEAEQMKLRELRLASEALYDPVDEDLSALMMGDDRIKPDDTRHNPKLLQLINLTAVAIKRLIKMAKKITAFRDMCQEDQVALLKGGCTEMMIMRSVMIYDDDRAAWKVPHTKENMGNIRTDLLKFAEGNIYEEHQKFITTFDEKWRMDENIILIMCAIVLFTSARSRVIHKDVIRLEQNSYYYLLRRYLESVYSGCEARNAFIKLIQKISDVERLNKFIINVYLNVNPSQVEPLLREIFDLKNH

## CC(C)(O)CC[C@@H](O)[C@](C)(O)[C@H]1CC[C@@]2(O)C3=CC(=O)[C@@H]4C[C@H](O)[C@@H](O)C[C@]4(C)[C@H]3CC[C@]12C [3-epi-20-hydroxyecdysone]
DHR38
  Activation of DHR38 in the GAL4-LBD system: can be activated

## CNC(=O)Oc1cccc2ccccc12 [Carbaryl]
[1]
  Solubility: water

## COc1cc2c(c(OC)c1OC)-c1ccc(OC)c(=O)cc1[C@@H](NC(C)=O)CC2 [Colchicine]
C. elegans nhr-8 mutant
  Resistance of nhr-8 mutant to the compound: reduced resistance
[1]
  Solubility: ethanol

## Clc1ccc(C(c2ccc(Cl)cc2)C(Cl)(Cl)Cl)cc1 [DDT]
[2]; 100 ng/μl DDT, mortality scored every hour for 10 hours
  Speed of death at a fixed concentration of DDT, DHR96 homozygotes vs wild type flies: died more rapidly
[2]; adult DHR96^16A or DHR96^E25 flies vs Canton S, 0.78 to 100 ng/μl DDT, scored 10 hours later
  Sensitivity to DDT (survival after a fixed time at varying concentrations), DHR96 mutants compared to control animals: more sensitive
[2]; [6]
  Sensitivity to DDT treatment, original DHR96E25 mutant line vs Canton S: more sensitive
  Sensitivity to DDT, outcrossed DHR96E25 line vs Canton S: no such sensitivity
Cyp6g1
  Cyp6g1 induction: low level
[1]
  Solubility: ethanol

## COP(=S)(OC)Oc1ccc([N+](=O)[O-])cc1 [Methyl parathion]
[1]
  Solubility: acetone

## O=[N+]([O-])/C=C1\NCCCS1 [Nithiazine]
[1]
  Solubility: water

## CC(=O)[C@H]1[C@H](C#N)C[C@H]2[C@@H]3CC=C4C[C@@H](O)CC[C@]4(C)[C@H]3CC[C@@]21C [PCN]
[1]
  Solubility: DMSO

## C[n+]1ccc(-c2cc[n+](C)cc2)cc1 [Paraquat]
[1]
  Solubility: water

## CO[C@H]1/C=C/O[C@@]2(C)Oc3c(C)c(O)c4c(O)c(c(/C=N/N5CCN(C)CC5)c(O)c4c3C2=O)NC(=O)/C(C)=C\C=C\[C@H](C)[C@H](O)[C@@H](C)[C@@H](O)[C@@H](C)[C@H](OC(C)=O)[C@@H]1C [Rifampicin]
[1]
  Solubility: DMSO

## CCN(CC)C(=S)[S-].O.O.O.[Na+] [Sodium diethyldithiocarbamate trihydrate]
[1]
  Solubility: water

## CCN(CC)CCCC(C)Nc1ccnc2cc(Cl)ccc12 (stereo not shown) [chloroquine]
C. elegans nhr-8 mutant
  Resistance of nhr-8 mutant to the compound: reduced resistance

## CCC1(c2ccccc2)C(=O)NC(=O)NC1=O [phenobarbital]
[3]
  Cyp6a2 and Cyp6a8 transcription in the DHR96 mutant: no change in expression
  Cyp6a2 and Cyp6a8 transcription in wild type animals: dramatic induction

## CCc1ccc(C(=O)NN(C(=O)c2cc(C)cc(C)c2)C(C)(C)C)cc1 [tebufenozide]
[4]
  Sensitivity of the outcrossed DHR96E25 mutant to tebufenozide (surviving adult flies): slight sensitivity
[5]
  Activation of GAL4-DHR96 (UAS-lacZ reporter gene expression): activated; also recorded: reproducible and distinct pattern of activation

## C[C@H]([C@H](O)CCC(C)(C)O)[C@H]1CC[C@@]2(O)C3=CC(=O)[C@@H]4C[C@@H](O)[C@@H](O)C[C@]4(C)[C@H]3CC[C@]12C [α-ecdysone]
DHR38
  Activation of DHR38 in the GAL4-LBD system: can be activated
